Measured values reported in patent US20090018111A1, “Novel Antimicrobial Medicament” (priority 2004, published 2009).
Like-named read-outs stand apart in the source and are kept apart here.

Assays:
K. pneumoniae ATCC10031 = experiment: Sensitivity test (agar dilution); assay type: cell-based, Klebsiella pneumoniae; details: Klebsiella pneumoniae, K. pneumoniae ATCC10031
Method: (§1) The antibacterial activities were tested against various 18 bacteria (27 standard strains) which are representative bacteria caused clinically infectious disease (Staphylococcus aureus 3 strains, Staphylococcus epidermidis 1 strain, Micrococcus luteus 1 strain, Streptococcus pyogenes 1 strain, Enterococcus faecalis 1 strain, Enterococcus faecium 1 strain, Bacillus subtilis 1 strain, Escherichia coli 3 strains, Klebsiella pneumoniae 1 strain, Proteus mirabilis 1 strain, Proteus vulgaris 2 strains, Pseudomonas aeruginosa 3 strains, Serratia marcescens 2 strains, Enterobacter aerogenes 1 strain, Stenotrophomonas maltophilia 1 strain, Enterobacter cloacae 1 strain, Citrobacter freundii 1 strain, Moraxella catarrhalis 2 strains).
(§2) According to the standard method of Japan Chemotherapeutic Society (Chemotherapy, vol. […], p 76-79 (1981)) the test was carried out using the agar dilution method. After dissolving test samples in distilled water, agar medium containing the test samples was prepared in such a manner that the final concentration became twice serial dilution by pouring serially diluted combination drug solution or a single drug solution into agar medium. As agar medium was used Mueller Hinton Agar medium (MHA). Then, each strain was cultivated over night at 37° C. in an incubator and suspended in buffered saline solution with gelatin (BSG) in the concentration of about 10^6 CFU/ml. The suspension (about 5 μl) containing test strains was inoculated to the medium containing the test samples by Micro Planter.
(§3) When the sample is subjected to sensitivity test, this mixed solution was diluted by twice serial dilution method.
(§4) Furthermore, when the drug is solely used, each test sample was used as it is, and diluted by twice serial dilution method from the maximum concentration to the minimum concentration.
(§5) FIC index based on MIC value was calculated. […] Namely, when FIC index calculated by the following formula is equal or less than 1, the enhanced effect of the combination drug in said ratio is considered as positive. When FIC index is over 1, the enhanced effect of the combination drug in said ratio is considered as negative.
(§6) Formula of FIC index: FIC index=(MIC of Drug A in combination/MIC of Drug A alone)+(MIC of Drug B in combination/MIC of Drug B alone) N.C. in tables means being not calculated.

S. maltophilia IID1275 = experiment: Sensitivity test (agar dilution); assay type: cell-based, Stenotrophomonas maltophilia; details: Stenotrophomonas maltophilia, S. maltophilia IID1275
Method: as §1, §2, §3, §4, §5, §6

M. catarrhalis ATCC25238 = experiment: Sensitivity test (agar dilution); assay type: cell-based, Moraxella catarrhalis; details: Moraxella catarrhalis, M. catarrhalis ATCC25238
Method: as §1, §2, §3, §4, §5, §6

M. catarrhalis ATCC8176 = experiment: Sensitivity test (agar dilution); assay type: cell-based, Moraxella catarrhalis; details: Moraxella catarrhalis, M. catarrhalis ATCC8176
Method: as §1, §2, §3, §4, §5, §6

E. faecalis ATCC19433 = experiment: Sensitivity test (agar dilution); assay type: cell-based, Enterococcus faecalis; details: Enterococcus faecalis, E. faecalis ATCC19433
Method: as §1, §2, §3, §4, §5, §6

B. subtilis ATCC6633 = experiment: Sensitivity test (agar dilution); assay type: cell-based, Bacillus subtilis; details: Bacillus subtilis, B. subtilis ATCC6633
Method: as §1, §2, §3, §4, §5, §6

P. aeruginosa TL-2666 = experiment: Sensitivity test (agar dilution); assay type: cell-based, Pseudomonas aeruginosa; details: Pseudomonas aeruginosa, P. aeruginosa TL-2666
Method: as §1, §2, §3, §4, §5, §6

P. aeruginosa TL-2667 = experiment: Sensitivity test (agar dilution); assay type: cell-based, Pseudomonas aeruginosa; details: Pseudomonas aeruginosa, P. aeruginosa TL-2667
Method: as §1, §2, §3, §4, §5, §6

E. coli ML1410 RP4 = experiment: microbe, parasite or virus in culture; assay type: cell-based, Escherichia coli; details: Escherichia coli, E. coli ML1410 RP4
Method: as §1, §2, §3, §4, §5, §6

E. aerogenes ATCC13048 = experiment: Sensitivity test (agar dilution); assay type: cell-based, Enterobacter aerogenes; details: Klebsiella aerogenes, E. aerogenes ATCC13048
Method: as §1, §2, §3, §4, §5, §6

M. luteus ATCC9341 = experiment: Sensitivity test (agar dilution); assay type: cell-based, Micrococcus luteus; details: Micrococcus luteus, M. luteus ATCC9341
Method: as §1, §2, §3, §4, §5, §6

P. mirabiris GN2425 = experiment: Sensitivity test (agar dilution); assay type: cell-based, Proteus mirabilis; details: Proteus mirabilis, P. mirabiris GN2425
Method: as §1, §2, §3, §4, §5, §6

C. freundii GN346 = experiment: Sensitivity test (agar dilution); assay type: cell-based, Citrobacter freundii; details: Citrobacter freundii, C. freundii GN346
Method: as §1, §2, §3, §4, §5, §6

[1] = ATCC10031, drug alone, read-out: MIC alone
[2] = IID1275, drug alone, read-out: MIC alone
[3] = ATCC25238, drug alone, read-out: MIC alone
[4] = ATCC8176, drug alone, read-out: MIC alone
[5] = ATCC19433, drug alone, read-out: MIC alone
[6] = ATCC6633, drug alone, read-out: MIC alone
[7] = TL2666, drug alone, read-out: MIC alone
[8] = TL2667, drug alone, read-out: MIC alone
[9] = ML1410RP4, read-out: MIC alone, drug alone
[10] = ATCC13048, drug alone, read-out: MIC alone
[11] = ATCC9341, drug alone, read-out: MIC alone
[12] = GN2425, drug alone, read-out: MIC alone
[13] = GN346, drug alone, read-out: MIC alone

Row | SMILES | MIC (K. pneumoniae ATCC10031; [1]) | MIC (S. maltophilia IID1275; [2]) | MIC (M. catarrhalis ATCC25238; [3]) | MIC (M. catarrhalis ATCC8176; [4]) | MIC (E. faecalis ATCC19433; [5]) | MIC (B. subtilis ATCC6633; [6]) | MIC (P. aeruginosa TL-2666; [7]) | MIC (P. aeruginosa TL-2667; [8]) | MIC (E. coli ML1410 RP4; [9]) | MIC (E. aerogenes ATCC13048; [10]) | MIC (M. luteus ATCC9341; [11]) | MIC (P. mirabiris GN2425; [12]) | MIC (C. freundii GN346; [13]) | further results
1 | CC(=N)N1CC[C@H](SC2=C(C(=O)O)N3C(=O)[C@H]([C@@H](C)O)[C@H]3C2)C1 [PAPM, panipenem] | 0.125 µg/mL | > 32 µg/mL | 0.008 µg/mL | 0.008 µg/mL | 2 µg/mL | 0.016 µg/mL | 8 µg/mL | 16 µg/mL | 0.5 µg/mL | 0.5 µg/mL | 0.031 µg/mL | 1 µg/mL | 0.5 µg/mL | MIC (K. pneumoniae ATCC10031; ATCC10031, Concomitant (PAPM:SM = 1:1), read-out: MIC concomitant): 0.016 µg/mL; MIC (S. maltophilia IID1275; IID1275, Concomitant (PAPM:SM = 1:1), read-out: MIC concomitant): > 32 µg/mL; MIC (M. catarrhalis ATCC25238; ATCC25238, Concomitant (PAPM:SM = 1:1), read-out: MIC concomitant): ≤ 0.002 µg/mL; MIC (M. catarrhalis ATCC8176; ATCC8176, Concomitant (PAPM:SM = 1:1), read-out: MIC concomitant): ≤ 0.002 µg/mL; MIC (E. faecalis ATCC19433; ATCC19433, Concomitant (PAPM:SM = 1:1), read-out: MIC concomitant): 1 µg/mL; MIC (B. subtilis ATCC6633; ATCC6633, Concomitant (PAPM:SM = 1:1), read-out: MIC concomitant): ≤ 0.002 µg/mL; MIC (P. aeruginosa TL-2666; TL2666, Concomitant (PAPM:SM = 1:1), read-out: MIC concomitant): 8 µg/mL; MIC (P. aeruginosa TL-2667; TL2667, Concomitant (PAPM:SM = 1:1), read-out: MIC concomitant): 16 µg/mL; MIC (E. coli ML1410 RP4; ML1410RP4, read-out: MIC concomitant, Concomitant (PAPM:SM = 1:1)): 0.125 µg/mL; MIC (E. aerogenes ATCC13048; ATCC13048, Concomitant (PAPM:SM = 1:1), read-out: MIC concomitant): 0.25 µg/mL; MIC (M. luteus ATCC9341; ATCC9341, Concomitant (PAPM:SM = 1:1), read-out: MIC concomitant): ≤ 0.002 µg/mL; MIC (P. mirabiris GN2425; GN2425, Concomitant (PAPM:SM = 1:1), read-out: MIC concomitant): 0.125 µg/mL; MIC (C. freundii GN346; GN346, Concomitant (PAPM:SM = 1:1), read-out: MIC concomitant): 0.25 µg/mL
2 | C[C@H]1[C@H](NC(=O)/C(=N\OC(C)(C)C(=O)O)c2csc(N)n2)C(=O)N1S(=O)(=O)O [AZT, aztreonam] | 0.004 µg/mL | > 32 µg/mL | 0.125 µg/mL | 0.25 µg/mL | > 32 µg/mL | > 32 µg/mL | 2 µg/mL | 2 µg/mL | 0.125 µg/mL | 0.063 µg/mL | 16 µg/mL | 0.004 µg/mL | 0.5 µg/mL | MIC (K. pneumoniae ATCC10031; ATCC10031, Concomitant (AZT:SM = 1:1), read-out: MIC concomitant): 0.004 µg/mL; MIC (S. maltophilia IID1275; IID1275, Concomitant (AZT:SM = 1:1), read-out: MIC concomitant): > 32 µg/mL; MIC (M. catarrhalis ATCC25238; ATCC25238, Concomitant (AZT:SM = 1:1), read-out: MIC concomitant): ≤ 0.002 µg/mL; MIC (M. catarrhalis ATCC8176; ATCC8176, Concomitant (AZT:SM = 1:1), read-out: MIC concomitant): ≤ 0.002 µg/mL; MIC (E. faecalis ATCC19433; ATCC19433, Concomitant (AZT:SM = 1:1), read-out: MIC concomitant): 1 µg/mL; MIC (B. subtilis ATCC6633; ATCC6633, Concomitant (AZT:SM = 1:1), read-out: MIC concomitant): ≤ 0.002 µg/mL; MIC (P. aeruginosa TL-2666; TL2666, Concomitant (AZT:SM = 1:1), read-out: MIC concomitant): 8 µg/mL; MIC (P. aeruginosa TL-2667; TL2667, Concomitant (AZT:SM = 1:1), read-out: MIC concomitant): 8 µg/mL; MIC (E. coli ML1410 RP4; ML1410RP4, read-out: MIC concomitant, Concomitant (AZT:SM = 1:1)): 0.063 µg/mL; MIC (E. aerogenes ATCC13048; ATCC13048, Concomitant (AZT:SM = 1:1), read-out: MIC concomitant): 8 µg/mL; MIC (M. luteus ATCC9341; ATCC9341, Concomitant (AZT:SM = 1:1), read-out: MIC concomitant): ≤ 0.002 µg/mL; MIC (P. mirabiris GN2425; GN2425, Concomitant (AZT:SM = 1:1), read-out: MIC concomitant): 0.004 µg/mL; MIC (C. freundii GN346; GN346, Concomitant (AZT:SM = 1:1), read-out: MIC concomitant): 8 µg/mL
